In US20200179428A1, “CYCLIC PHOSPHATE SUBSTITUTED NUCLEOSIDE DERIVATIVES AND METHODS OF USE THEREOF FOR THE TREATMENT OF VIRAL DISEASES” (priority 2016, published 2020):
Like-named read-outs stand apart in the source and are kept apart here.

Columns and labels:
[1] = Cytotoxicity MTS assay (CellTiter 96 Aqueous One Solution) in replicon cells; format: cell-based; settings: HCV replicon cells (1b-Con1); EDU; read-out: CC50 (EDU) Range
Experimental: (§1) To measure cell-based anti-HCV activity of the compounds of the present invention, replicon cells (1b-Con1) are seeded at 5000 cells/well in 96-well plates one day prior to treatment with a compound of the invention. Various concentrations of a test compound of the invention in DMSO are then added to the replicon cells, with the final concentration of DMSO at 0.5% and fetal bovine serum at 10% in the assay media. Cells are harvested three days post-dosing, and the replicon RNA level is determined using real-time RT-PCR (Taqman assay) with GAPDH RNA as endogenous control. EC50 values are calculated from experiments with 10 serial twofold dilutions of the inhibitor in triplicate. To measure cytotoxicity in replicon cells of an inhibitor, an MTS assay is performed according to the manufacturer's protocol for CellTiter 96 Aqueous One Solution Cell Proliferation Assay (Promega, Cat # G3580) three days post dosing on cells treated identically as in replicon activity assays. […] Cytotoxicity in other types of cells may be measured using the same MTS protocol.

[2] = tested on: replicon cells (1b-Con1); test: Replicon activity assay (replicon RNA level by real-time RT-PCR, Taqman); format: cell-based; settings: HCV replicon genotype 1b, read-out: EC50 (1b) Range
Experimental: as §1

Row | Compound | CC50 at 3 days [1] | EC50 ([2]; Hepatitis C virus) | EC50 [2]
1 | C#C[C@]1(C)[C@@H]2O[P@](=O)(OCC[C@@H](OC(C)=O)C(=O)OC(C)C)OC[C@H]2O[C@H]1n1ccc(=O)[nH]c1=O [Compound 50B] | > 50 µM | 0.25 to 1 µM | –
2 | C#C[C@@]1(O)[C@@H]2OP(=O)(OCC[C@@H](OC)C(=O)OC(C)C)OC[C@H]2O[C@H]1n1ccc(=O)[nH]c1=O (some centres unmarked) [Compound 76] | > 50 µM | ≤ 0.25 µM | –
3 | CC(C)OC(=O)C1(CCO[P@]2(=O)OC[C@H]3O[C@@H](n4ccc(=O)[nH]c4=O)[C@](C)(N)[C@@H]3O2)CC1 [Compound 27B] | > 50 µM | > 10 µM | –
4 | CC(C)OC(=O)C(C)(C)CCO[P@@]1(=O)OC[C@H]2O[C@@H](n3ccc(=O)[nH]c3=O)[C@](C)(N)[C@@H]2O1 [Compound 19A] | > 50 µM | > 10 µM | –
5 | CC(C)OC(=O)C(C)(C)CO[P@]1(=O)OC[C@H]2O[C@@H](n3ccc(=O)[nH]c3=O)[C@](C)(N)[C@@H]2O1 [Compound 15B] | > 50 µM | > 10 µM | –
6 | C#C[C@]1(C)[C@@H]2O[P@](=O)(OC[C@H](F)CC(=O)OC(C)C)OC[C@H]2O[C@H]1n1ccc(=O)[nH]c1=O [Compound 66B] | > 50 µM | 0.25 to 1 µM | –
7 | C#C[C@]1(C)[C@@H]2O[P@@](=O)(OCCC(C)C(=O)OC3CCCCC3)OC[C@H]2O[C@H]1n1ccc(=O)[nH]c1=O (some centres unmarked) [Compound 77A] | > 50 µM | 1 to 10 µM | –
8 | CC(C)OC(=O)C(C)(C)CCO[P@]1(=O)OC[C@H]2O[C@@H](n3ccc(=O)[nH]c3=O)[C@](C)(N)[C@@H]2O1 [Compound 19B] | > 50 µM | > 10 µM | –
9 | CC(CCOP1(=O)OC[C@H]2O[C@@H](n3ccc(=O)[nH]c3=O)[C@](C)(N)[C@@H]2O1)C(=O)OC1CCCC1 (some centres unmarked) [Compound 14A] | > 50 µM | > 10 µM | –
10 | CO[C@H](CCO[P@@]1(=O)OC[C@H]2O[C@@H](n3ccc(=O)[nH]c3=O)[C@](C)(N)[C@@H]2O1)C(=O)OC(C)C [Compound 45A] | > 50 µM | 1 to 10 µM | –
11 | C#C[C@]1(C)[C@@H]2O[P@@](=O)(OCC[C@H](C)C(=O)OC(C)C)OC[C@H]2O[C@H]1n1cnc2c(N)ncnc21 [Compound 72A] | > 50 µM | > 10 µM | –
12 | CC(C)OC(=O)C(CCO[P@@]1(=O)OC[C@H]2O[C@@H](n3cnc4c(N)ncnc43)[C@](C)(Cl)[C@@H]2O1)C(=O)OC(C)C [Compound 70A] | > 50 µM | 0.25 to 1 µM | –
13 | C#C[C@]1(C)[C@@H]2O[P@@](=O)(OCC[C@@H](OC)C(=O)OC(C)C)OC[C@H]2O[C@H]1n1ccc(=O)[nH]c1=O [Compound 57A] | > 50 µM | 1 to 10 µM | –
14 | CCC(CCO[P@]1(=O)OC[C@H]2O[C@@H](n3ccc(=O)[nH]c3=O)[C@](C)(N)[C@@H]2O1)C(=O)OC(C)C (some centres unmarked) [Compound 23B] | > 50 µM | > 10 µM | –
15 | CC(=O)O[C@@H](CO[P@@]1(=O)OC[C@H]2O[C@@H](n3ccc(=O)[nH]c3=O)[C@](C)(N)[C@@H]2O1)[C@@H](OC(C)=O)C(=O)OC(C)C [Compound 54A] | > 50 µM | > 10 µM | –
16 | C#C[C@]1(C)[C@@H]2O[P@](=O)(OCC[C@H](OC)C(=O)OC(C)C)OC[C@H]2O[C@H]1n1ccc(=O)[nH]c1=O [Compound 56B] | > 50 µM | 0.25 to 1 µM | –
17 | CC(C)OC(=O)[C@H](C)CCO[P@]1(=O)OC[C@H]2O[C@@H](n3cc(F)c4c(N)ncnc43)[C@](C)(Cl)[C@@H]2O1 [Compound 81B] | – | > 10 µM | –
18 | CC(C)OC(=O)C(CCO[P@@]1(=O)OC[C@H]2O[C@@H](n3ccc(=O)[nH]c3=O)[C@](C)(N)[C@@H]2O1)C(C)C (some centres unmarked) [Compound 24A] | > 50 µM | > 10 µM | –
19 | C#C[C@]1(C)[C@@H]2OP(=O)(OCCC(C)C(=O)OC3CCCC3)OC[C@H]2O[C@H]1n1ccc(=O)[nH]c1=O (single isomer, unassigned) [Compound 2B] | > 50 µM | ≤ 0.25 µM | –
20 | C#C[C@]1(C)[C@@H]2O[P@@](=O)(OCC(C)CCC(=O)OC(C)C)OC[C@H]2O[C@H]1n1ccc(=O)[nH]c1=O (some centres unmarked) [Compound 22A] | > 50 µM | > 10 µM | –
21 | C#C[C@]1(C)[C@@H]2O[P@@](=O)(OCC[C@@H](OC(C)=O)C(=O)OC(C)C)OC[C@H]2O[C@H]1n1ccc(=O)[nH]c1=O [Compound 50A] | > 50 µM | > 10 µM | –
22 | CC(=O)O[C@H](C(=O)OC(C)C)[C@@H](CO[P@@]1(=O)OC[C@H]2O[C@@H](n3ccc(=O)[nH]c3=O)[C@](C)(N)[C@@H]2O1)OC(C)=O [Compound 53A] | – | > 10 µM | –
23 | CO[C@H](CO[P@]1(=O)OC[C@H]2O[C@@H](n3ccc(=O)[nH]c3=O)[C@](C)(N)[C@@H]2O1)CC(=O)OC(C)C [Compound 61B] | > 50 µM | > 10 µM | –
24 | CC(C)OC(=O)C(C)CCCO[P@@]1(=O)OC[C@H]2O[C@@H](n3ccc(=O)[nH]c3=O)[C@](C)(N)[C@@H]2O1 (some centres unmarked) [Compound 34A] | > 50 µM | > 10 µM | –

Row | Compound | CC50 at 3 days [1] | EC50 ([2]; Hepatitis C virus) | EC50 [2]
25 | CC(C)OC(=O)C(C)CCOP1(=O)OC[C@H]2O[C@@H](n3ccc(=O)[nH]c3=O)[C@](C)(N)[C@@H]2O1 (some centres unmarked) [Compound 10A] | > 50 µM | > 10 µM | –
26 | CC(C)OC(=O)C(C)CCOP1(=O)OC[C@H]2O[C@@H](n3ccc(=O)[nH]c3=O)[C@](C)(Cl)[C@@H]2O1 (single isomer, unassigned) [Compound 39B1] | > 50 µM | ≤ 0.25 µM | –
27 | CC(C)OC(=O)C[C@@H](F)CO[P@@]1(=O)OC[C@H]2O[C@@H](n3ccc(=O)[nH]c3=O)[C@](C)(N)[C@@H]2O1 [Compound 67A] | > 50 µM | > 10 µM | –
28 | C#C[C@@]1(O)[C@@H]2OP(=O)(OCC[C@H](C)C(=O)OC(C)C)OC[C@H]2O[C@H]1n1ccc(=O)[nH]c1=O (single isomer, unassigned) [Compound 7A2] | > 50 µM | – | 0.25 to 1 µM
29 | CO[C@H](CCOP1(=O)OC[C@H]2O[C@@H](n3ccc(=O)[nH]c3=O)[C@](C)(Cl)[C@@H]2O1)C(=O)OC(C)C (some centres unmarked) [Compound 37A] | > 50 µM | 0.25 to 1 µM | –
30 | C#C[C@]1(C)[C@@H]2O[P@@](=O)(OC[C@H](CC(=O)OC(C)C)OC)OC[C@H]2O[C@H]1n1ccc(=O)[nH]c1=O [Compound 60A] | > 50 µM | > 10 µM | –
31 | C#C[C@]1(C)[C@@H]2O[P@](=O)(OCC(C)CCC(=O)OC(C)C)OC[C@H]2O[C@H]1n1ccc(=O)[nH]c1=O (some centres unmarked) [Compound 22B] | > 50 µM | > 10 µM | –
32 | C#C[C@]1(C)[C@@H]2O[P@](=O)(OCCOCC(=O)OC(C)C)OC[C@H]2O[C@H]1n1ccc(=O)[nH]c1=O [Compound 68B] | > 50 µM | 1 to 10 µM | –
33 | C[C@@]1(N)[C@@H]2O[P@@](=O)(OCCC3(C(=O)OC4CCCC4)CC3)OC[C@H]2O[C@H]1n1ccc(=O)[nH]c1=O [Compound 26A] | > 50 µM | > 10 µM | –
34 | C#C[C@]1(C)[C@@H]2O[P@](=O)(OCC[C@@H](OC)C(=O)OC(C)C)OC[C@H]2O[C@H]1n1ccc(=O)[nH]c1=O [Compound 57B] | > 50 µM | 1 to 10 µM | –
35 | C[C@@]1(N)[C@@H]2O[P@](=O)(OCCC3CCOC3=O)OC[C@H]2O[C@H]1n1ccc(=O)[nH]c1=O (some centres unmarked) [Compound 46B] | > 50 µM | > 10 µM | –
36 | CC(=O)O[C@H](CO[P@@]1(=O)OC[C@H]2O[C@@H](n3ccc(=O)[nH]c3=O)[C@](C)(N)[C@@H]2O1)CC(=O)OC(C)C [Compound 52A] | – | > 10 µM | –
37 | CC(C)OC(=O)[C@H](C)CCO[P@]1(=O)OC[C@H]2O[C@@H](n3cc(F)c4c(N)ncnc43)[C@](C)(Cl)[C@@H]2O1 [Compound 82B] | – | – | > 10 µM
38 | CC(C)OC(=O)[C@H](C)CCO[P@@]1(=O)OC[C@H]2O[C@@H](n3cc(F)c4c(N)ncnc43)[C@](C)(Cl)[C@@H]2O1 [Compound 81A] | – | > 10 µM | –
39 | CCC(CCO[P@]1(=O)OC[C@H]2O[C@@H](n3ccc(=O)[nH]c3=O)[C@](C)(N)[C@@H]2O1)C(=O)OC1CCCC1 (some centres unmarked) [Compound 25B] | – | > 10 µM | –
40 | CC(C)OC(=O)[C@H](C)CCOP1(=O)OC[C@@]2(F)O[C@@H](n3ccc(=O)[nH]c3=O)[C@](C)(F)[C@@H]2O1 (some centres unmarked) [Compound 87A] | – | ≤ 0.25 µM | –
41 | CC(C)OC(=O)[C@@H](C)CCO[P@@]1(=O)OC[C@H]2O[C@@H](n3cc(F)c4c(N)ncnc43)[C@](C)(Cl)[C@@H]2O1 [Compound 82A] | – | > 10 µM | –
42 | CC(=O)O[C@H](CO[P@]1(=O)OC[C@H]2O[C@@H](n3ccc(=O)[nH]c3=O)[C@](C)(N)[C@@H]2O1)CC(=O)OC(C)C [Compound 52B] | – | > 10 µM | –
43 | CC(C)OC(=O)[C@@H](C)CCO[P@@]1(=O)OC[C@H]2O[C@@H](n3ccc4c(N)ncnc43)[C@](C)(Cl)[C@@H]2O1 [Compound 80A] | – | > 10 µM | –
44 | C#C[C@]1(C)[C@@H]2O[P@@](=O)(OC[C@H](CC(=O)OC(C)C)OC(C)=O)OC[C@H]2O[C@H]1n1ccc(=O)[nH]c1=O [Compound 55A] | – | > 10 µM | –
45 | C#C[C@]1(C)[C@@H]2O[P@](=O)(OC[C@H](CC(=O)OC(C)C)OC(C)=O)OC[C@H]2O[C@H]1n1ccc(=O)[nH]c1=O [Compound 55B] | – | > 10 µM | –
46 | CCC(CCO[P@@]1(=O)OC[C@H]2O[C@@H](n3ccc(=O)[nH]c3=O)[C@](C)(N)[C@@H]2O1)C(=O)OC1CCCC1 (some centres unmarked) [Compound 25A] | – | > 10 µM | –
47 | CC(C)OC(=O)[C@@H](C)CCO[P@]1(=O)OC[C@H]2O[C@@H](n3ccc4c(N)ncnc43)[C@](C)(Cl)[C@@H]2O1 [Compound 80B] | – | 1 to 10 µM | –
